Measured values as given in patent US20100178260A1, “COMPOSITION COMPRISING A RETINOID, AN ADENOSINE-BASED NONPHOSPHATED COMPOUND, AND A SEMICRYSTALLINE POLYMER” (L'OREAL, priority 2009, published 2010).

Tested on: Realskin reconstructed epidermis (filaggrin, marker for epidermal differentiation)
Assay: Epidermal differentiation (filaggrin immunolabelling) in Realskin reconstructed epidermis model
Format: cell-based
Details: incubated from D 20, analysed from D 27
Procedure: The effects of the combination are evaluated with respect to epidermal differentiation and proliferation in the […] reconstructed epidermis model. […] The epidermises are analysed histologically and by filaggrin (marker for epidermal differentiation) immunolabelling starting from D 27. Filaggrin, which is a late differentiation marker, is a product of degradation of profilaggrin, a high MW phosphoprotein contained in the keratohyalin granules. At the moment the keratinocyte transforms into a corneocyte, the keratohyalin granules disaggregate, and the profillagrin undergoes sequential proteolysis which releases oligomers and then monomers of filaggrin. The results arc illustrated in FIG. 1.

Row | Structure (SMILES) | differentiation (filaggrin immunolabelling) (Adenosine at 10 μM) | delay in differentiation (filaggrin immunolabelling) (Retinol at 250 μM) [%]
1 | Nc1ncnc2c1ncn2[C@@H]1O[C@H](CO)[C@@H](O)[C@H]1O [adenosine] | +11% | 
2 | CC1=C(/C=C/C(C)=C/C=C/C(C)=C/CO)C(C)(C)CCC1 [retinol] |  | −36
